Data published in patent US20240109903A1, “SUBSTITUTED HETEROCYCLES FOR TREATING CANCER” (Northwestern University, priority 2022, published 2024).
Like-named read-outs stand apart in the source and are kept apart here.

System: MV-4-11 acute myeloid leukemia cells
Test: CellTiter-Glo 2.0 cell viability, MV-4-11
Assay type: cell-based
Conditions: Homo sapiens
Experimental: 2019 October; 94(4): 1813-1823.
Cell viability was assessed using the CellTiter-Glo 2.0 assay from Promega, which yields a signal proportional to the amount of ATP present in a cell population. Compounds were first dispensed into empty 96-well flat-bottom tissue culture-treated plates (Corning) using an Echo550. MV4-1 cells were diluted to a density of 0.1 million cells per ml, pipetted onto the compounds at a density of 1,000 cells per well for U937 and 3,000 cells per well for MV4-11, mixed, and incubated for 3 days at 37° C. with 5% C02. After incubating, 5 μl of cells from each well were added to 5 μl of CellTiter-Glo 2.0 reagent in a384-well white ProxiPlate (PerkinElmer), incubated for 20 minutes at ambient temperature, and luminescence was analyzed on an EnSpire plate reader. Graphing and regression analysis was performed in Graphpad Prism.

[1] = MV4-11, 72 h, MV-4-11 cells, 3 days, CellTiter-Glo 2.0, read-out: IC50 (uM) [Cell Type: MV-4-11]
[2] = MV4-11, bound stated in text, read-out: IC50 against MV-4-11 acute myeloid leukemia cells

Row | Structure (SMILES) | IC50 [1] [µM] | IC50 [2] [µM]
1 | FC(F)(F)c1cc2c(Cl)ncnc2n1CC1CNC1 [NUCC-0226670] | 1.12 | < 2
2 | CC(C)(C)OC(=O)N1CC(Cn2c(C(F)(F)F)cc3c(Cl)ncnc32)C1 [NUCC-0226669] | 1.02 | < 2
3 | Oc1ncnc2c1cc(C(F)(F)F)n2CC1CCNCC1 [NUCC-0226688] | > 20 | 
4 | CC(C)(C)OC(=O)N1CCC(CCn2c(C(F)(F)F)cc3c(Cl)ncnc32)CC1 [NUCC-0226678] | 1.3 | < 2
5 | COc1ccc(Cn2c(C(F)(F)F)cc3c(Cl)ncnc32)cn1 [NUCC-0226697] | 1.08 | < 2
6 | CC(C)(O)CCn1c(C(F)(F)F)cc2c(Cl)ncnc21 [NUCC-0226440] | 0.23 | < 2
7 | Cc1n[nH]c(C)c1CCn1c(C(F)(F)F)cc2c(Cl)ncnc21 [NUCC-0226684] | 0.94 | < 2
8 | CC(=O)N1CCC(Cn2c(C(F)(F)F)cc3c(Cl)ncnc32)CC1 [NUCC-0226676] | > 20 | 
9 | FC(F)(F)c1cc2c(Cl)ncnc2n1CCN1CCNCC1 [NUCC-0226682] | 2.24 | 
10 | O=S1(=O)CCC(Cn2c(C(F)(F)F)cc3c(Cl)ncnc32)CC1 [NUCC-0226668] | 2.88 | 
11 | Cc1ncnc2c1cc(C(F)(F)F)n2CC1CCNCC1 [NUCC-0226696] | > 20 | 
12 | NC(=O)N1CCC(Cn2c(C(F)(F)F)cc3c(Cl)ncnc32)CC1 [NUCC-0226677] | 1.6 | < 2
13 | FC(F)(F)c1cc2cncnc2n1CC1CCNCC1 [NUCC-0226687] | > 20 | 
14 | FC(F)(F)c1cc2c(Cl)ncnc2n1CC1CCOCC1 [NUCC-0226673] | 2.68 | 
15 | O=c1cc(Cn2c(C(F)(F)F)cc3c(Cl)ncnc32)cc[nH]1 [NUCC-0226693] | 2.01 | 
16 | FC(F)(F)c1cc2c(Cl)ncnc2n1CCC1CCNCC1 [NUCC-0226692] | 0.773 | < 2
17 | CC(C)(C)OC(=O)N1CCN(CCn2c(C(F)(F)F)cc3c(Cl)ncnc32)CC1 [NUCC-0226681] | 0.949 | < 2
18 | CN(C)CCn1c(C(F)(F)F)cc2c(Cl)ncnc21 [NUCC-0226666] | 2.09 | 
19 | FC(F)(F)c1cc2c(Cl)ncnc2n1Cc1cccnc1 [NUCC-0226690] | 0.562 | < 2
20 | O=C1CCCN1CCn1c(C(F)(F)F)cc2c(Cl)ncnc21 [NUCC-0226439] | 0.11 | < 2
21 | OCCOCCn1c(C(F)(F)F)cc2c(Cl)ncnc21 [NUCC-0226665] | 1.23 | < 2
22 | CC(C)(C)OC(=O)N1CCC(Cn2c(C(F)(F)F)cc3c(Cl)ncnc32)CC1 [NUCC-0226675, tert-butyl 4-((4-chloro-6-(trifluoromethyl)-7H-pyrrolo[2,3-d]pyrimidin-7-yl)methyl)piperidine-1-carboxylate] | 2.51 | 
23 | Cc1cc2c(Cl)ncnc2n1CC1CCNCC1 [NUCC-0226699] | > 20 | 
24 | FC(F)(F)c1cc2c(Cl)ncnc2n1CCN1CCCC1 [NUCC-0226667] | 1.43 | < 2
25 | N=C(N)N1CC(Cn2c(C(F)(F)F)cc3c(Cl)ncnc32)C1 [NUCC-0226671] | > 20 | 
26 | FC(F)(F)c1cc2c(Cl)ncnc2n1Cc1ccncc1 [NUCC-0226691] | 1.32 | < 2
27 | FC(F)(F)c1cc2c(Cl)ncnc2n1CCn1cccn1 [NUCC-0226685] | 3.98 | 
28 | FC(F)(F)CN1CCC(Cn2c(C(F)(F)F)cc3c(Cl)ncnc32)CC1 [NUCC-0226701] | 0.919 | < 2
29 | FC(F)(F)CN1CC(Cn2c(C(F)(F)F)cc3c(Cl)ncnc32)C1 [NUCC-0226672] | 0.871 | < 2
30 | Fc1ccc(Cn2c(C(F)(F)F)cc3c(Cl)ncnc32)cc1 [NUCC-0226686] | 1.13 | < 2
